Measured values as given in patent publication US7470711B2, “Piperidinyl substituted cyclohexane-1,4-diamines” (Janssen Pharmaceutica N.V., priority 2005, dated 2008).
Read-outs that look alike come from different tables or passages of the source.

Legend:
[1] = target: T1, α1a-AR (Homo sapiens, UniProt P35348); experiment: α1-Adrenergic receptor radio-ligand binding assay, α1a subtype
T1 construct: expressed in transfected cells; host or cells: COS-7 cells (membranes)
T1 sequence (P35348 1-455 isoform P35348-4): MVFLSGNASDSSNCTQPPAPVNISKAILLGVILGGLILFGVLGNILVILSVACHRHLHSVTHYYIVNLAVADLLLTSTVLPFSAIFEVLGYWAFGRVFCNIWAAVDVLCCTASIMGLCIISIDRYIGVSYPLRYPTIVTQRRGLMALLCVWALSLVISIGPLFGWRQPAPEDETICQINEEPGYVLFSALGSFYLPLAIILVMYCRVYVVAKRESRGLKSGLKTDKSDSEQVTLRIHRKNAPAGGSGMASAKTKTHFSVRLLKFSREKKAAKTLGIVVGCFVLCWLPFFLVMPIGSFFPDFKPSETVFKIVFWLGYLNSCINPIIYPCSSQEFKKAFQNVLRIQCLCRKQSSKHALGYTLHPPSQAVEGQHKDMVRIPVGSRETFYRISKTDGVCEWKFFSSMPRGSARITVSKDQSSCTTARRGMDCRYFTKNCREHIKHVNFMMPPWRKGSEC
Description: (§1) Membranes were prepared from COS-7 cells (African Green monkey kidney SV40-transformed cells) that had been transfected with one of the three α1-AR subtypes (Genbank accession number for the α1a subtype: AF013261; Genbank accession number for the α1b subtype: NM000679; Genbank accession number for the α1d subtype: NM000678) using the following method: COS cells from ten 100 mm tissue culture plates were scraped into a 5 mL volume of TE (a mixture of 50 mM Tris-HCl, 5 mM EDTA, pH 7.4). […] The disrupted cells were centrifuged at 1000×g for 10 min at 4° C. Supernatants were centrifuged at 34,500×g for 20 min at 4° C. The membrane pellets were suspended in a 2 mL volume of TNE (a mixture of 50 mM Tris-HCl, 5 mM EDTA and 150 mM NaCl at pH 7.4). An aliquot of the membrane suspension was stored at −70° C. until use. The protein concentration was determined using the BioRad “DC” protein assay kit following membrane solubilization with Triton X-100.
(§2) Triplicate determinations of radio-ligand binding in the presence of increasing concentrations of testing compound were made. The reagents were added to 96-well polypropylene plate wells. […] The plate was incubated at rt for 1 hr. The contents of the wells were filtered through a glass filter (type C) (GF/C) membrane Unifilter plate (Packard Instruments) using the Packard Filtermate cell harvester. The filter plates were dried in a vacuum oven for 30 min at 40° C. 25 μL Microscint 20 liquid scintillation fluid (Packard Instuments) was added to each well. The radioactive content was analyzed in the TopCount microplate scintillation counter (Packard Instruments).

[2] = target: T2, α1b-AR (Homo sapiens, UniProt P35368); experiment: α1-Adrenergic receptor radio-ligand binding assay, α1b subtype
T2 construct: expressed in transfected cells; host or cells: COS-7 cells (membranes)
T2 sequence (P35368 1-520): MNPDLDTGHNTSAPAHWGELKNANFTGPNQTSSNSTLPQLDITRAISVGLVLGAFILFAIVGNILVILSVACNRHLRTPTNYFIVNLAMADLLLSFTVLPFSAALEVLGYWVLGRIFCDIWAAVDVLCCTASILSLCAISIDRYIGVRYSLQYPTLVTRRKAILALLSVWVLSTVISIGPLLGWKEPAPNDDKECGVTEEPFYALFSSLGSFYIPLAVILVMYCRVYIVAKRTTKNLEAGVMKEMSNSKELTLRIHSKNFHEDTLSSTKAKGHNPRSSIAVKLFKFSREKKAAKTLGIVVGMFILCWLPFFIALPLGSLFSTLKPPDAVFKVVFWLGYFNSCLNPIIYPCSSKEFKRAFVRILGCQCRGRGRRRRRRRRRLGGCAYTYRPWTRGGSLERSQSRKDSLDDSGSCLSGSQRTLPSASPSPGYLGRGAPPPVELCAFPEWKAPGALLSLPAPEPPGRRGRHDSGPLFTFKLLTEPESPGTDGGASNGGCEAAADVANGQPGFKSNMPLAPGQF
Description: as §1, §2

[3] = target: T3, α1d-AR (Homo sapiens, UniProt P25100); experiment: α1-Adrenergic receptor radio-ligand binding assay, α1d subtype
T3 construct: expressed in transfected cells; host or cells: COS-7 cells (membranes)
T3 sequence (P25100 1-572): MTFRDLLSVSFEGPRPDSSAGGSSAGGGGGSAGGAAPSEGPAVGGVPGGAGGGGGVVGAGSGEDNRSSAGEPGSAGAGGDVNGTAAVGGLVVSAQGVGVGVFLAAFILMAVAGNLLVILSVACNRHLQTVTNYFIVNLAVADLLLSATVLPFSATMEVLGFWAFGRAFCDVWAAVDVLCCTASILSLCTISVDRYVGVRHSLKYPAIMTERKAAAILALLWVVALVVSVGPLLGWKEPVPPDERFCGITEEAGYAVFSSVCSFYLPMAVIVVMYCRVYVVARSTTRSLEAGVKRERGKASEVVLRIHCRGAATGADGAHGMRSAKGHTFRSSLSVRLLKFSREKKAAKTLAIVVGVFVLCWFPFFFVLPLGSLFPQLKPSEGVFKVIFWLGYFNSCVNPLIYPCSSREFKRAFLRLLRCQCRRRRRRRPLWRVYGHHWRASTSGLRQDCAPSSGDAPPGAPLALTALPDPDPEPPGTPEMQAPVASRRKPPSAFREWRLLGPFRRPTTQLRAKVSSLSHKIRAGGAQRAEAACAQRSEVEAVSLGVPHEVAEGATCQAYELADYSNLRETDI
Description: as §1, §2

[4] = 125I-HEAT, membranes of COS-7 cells transfected with α1b subtype, rt 1 hr, read-out: Receptor Binding, Ki α1b-AR
[5] = 125I-HEAT, membranes of COS-7 cells transfected with α1a subtype, rt 1 hr, read-out: Receptor Binding, Ki α1a-AR
[6] = 125I-HEAT, membranes of COS-7 cells transfected with α1d subtype, rt 1 hr, read-out: Receptor Binding, Ki α1d-AR
[7] = read-out: Receptor Binding, Ki α1a-AR

Row | Compound | Ki [1] [nM] | Ki [2, 4] [nM] | Ki [3] [nM] | Ki [1, 5] [nM] | Ki [3, 6] [nM] | Ki [2] [nM] | Ki [1, 7] [nM]
1 | COc1ccc(S(=O)(=O)N[C@H]2CC[C@@H](N3CCC(c4ccccc4OC(C)C)CC3)CC2)cc1OC [Cpd 1, N-cis-{4-[4-(2-isopropoxy-phenyl)-piperidin-1-yl]-cyclohexyl}-3,4-dimethoxy-benzenesulfonamide] | 1.2 | 144 | 1.8 | – | – | – | –
2 | COc1ccc(S(=O)(=O)N[C@H]2CC[C@H](N3CCC(c4ccccc4OC(C)C)CC3)CC2)cc1OC [Cpd 2, N-trans-{4-[4-(2-isopropoxy-phenyl)-piperidin-1-yl]-cyclohexyl}-3,4-dimethoxy-benzenesulfonamide] | – | 148 | – | 27.8 | 40.2 | – | –
3 | COc1ccc(S(=O)(=O)N[C@H]2CC[C@@H](N3CCC(c4ccccc4OCC(F)(F)F)CC3)CC2)cc1OC [Cpd 5, 3,4-dimethoxy-N-cis-(4-{4-[2-(2,2,2-trifluoro-ethoxy)-phenyl]-piperidin-1-yl}-cyclohexyl)-benzenesulfonamide] | 3 | – | 7.3 | – | – | 470 | –
4 | COc1ccc(S(=O)(=O)N[C@H]2CC[C@H](N3CCC(c4ccccc4OCC(F)(F)F)CC3)CC2)cc1OC [Cpd 6, 3,4-dimethoxy-N-trans-(4-{4-[2-(2,2,2-trifluoro-ethoxy)-phenyl]-piperidin-1-yl}-cyclohexyl)-benzenesulfonamide] | 1.4 | – | 88.6 | – | – | 1380 | –
5 | COc1ccc(S(=O)(=O)N[C@H]2CC[C@@H](N3CCC(c4ccccc4OC4CC4)CC3)CC2)cc1OC [Cpd 7, N-cis-{4-[4-(2-cyclopropoxy-phenyl)-piperidin-1-yl]-cyclohexyl}-3,4-dimethoxy-benzenesulfonamide] | – | 141 | – | 0.91 | 2 | – | –
6 | COc1ccc(S(=O)(=O)N[C@H]2CC[C@H](N3CCC(c4ccccc4OC4CC4)CC3)CC2)cc1OC [Cpd 8, N-trans-{4-[4-(2-cyclopropoxy-phenyl)-piperidin-1-yl]-cyclohexyl}-3,4-dimethoxy-benzenesulfonamide] | 10.8 | 133 | 33.6 | – | – | – | –
7 | COc1ccc(Cl)cc1S(=O)(=O)N[C@H]1CC[C@@H](N2CCC(c3ccccc3OC3CC3)CC2)CC1 [Cpd 9, 5-chloro-N-cis-{4-[4-(2-cyclopropoxy-phenyl)-piperidin-1-yl]-cyclohexyl}-2-methoxy-benzenesulfonamide] | – | 82 | – | 1.3 | 2.6 | – | –
8 | COc1ccc(Cl)cc1S(=O)(=O)N[C@H]1CC[C@H](N2CCC(c3ccccc3OC3CC3)CC2)CC1 [Cpd 10, 5-chloro-N-trans-{4-[4-(2-cyclopropoxy-phenyl)-piperidin-1-yl]-cyclohexyl}-2-methoxy-benzenesulfonamide] | – | 305 | – | 4.5 | 47 | – | –
9 | O=S(=O)(N[C@H]1CC[C@@H](N2CCC(c3ccccc3OC3CC3)CC2)CC1)c1cc(Cl)ccc1F [Cpd 11, 5-chloro-N-cis-{4-[4-(2-cyclopropoxy-phenyl)-piperidin-1-yl]-cyclohexyl}-2-fluoro-benzenesulfonamide] | – | 107 | – | 1.8 | 2.1 | – | –
10 | O=S(=O)(N[C@H]1CC[C@H](N2CCC(c3ccccc3OC3CC3)CC2)CC1)c1cc(Cl)ccc1F [Cpd 12, 5-chloro-N-trans-{4-[4-(2-cyclopropoxy-phenyl)-piperidin-1-yl]-cyclohexyl}-2-fluoro-benzenesulfonamide] | – | 337 | – | 3.8 | 32 | – | –
11 | O=S(=O)(N[C@H]1CC[C@@H](N2CCC(c3ccccc3OC3CC3)CC2)CC1)c1ccc(Cl)cc1Cl [Cpd 15, 2,4-dichloro-N-cis-{4-[4-(2-cyclopropoxy-phenyl)-piperidin-1-yl]-cyclohexyl}-benzenesulfonamide] | – | 839 | – | 79 | 6.1 | – | –
12 | O=S(=O)(N[C@H]1CC[C@H](N2CCC(c3ccccc3OC3CC3)CC2)CC1)c1ccc(Cl)cc1Cl [Cpd 16, 2,4-dichloro-N-trans-{4-[4-(2-cyclopropoxy-phenyl)-piperidin-1-yl]-cyclohexyl}-benzenesulfonamide] | – | 411 | – | 30.4 | 2.4 | – | –
13 | O=S(=O)(N[C@H]1CC[C@@H](N2CCC(c3ccccc3OC3CC3)CC2)CC1)c1ccc2c(c1)OCO2 [Cpd 21, benzo[1,3]dioxole-5-sulfonic acid cis-{4-[4-(2-cyclopropoxy-phenyl)-piperidin-1-yl]-cyclohexyl}-amide] | 15.6 | – | 13 | – | – | 275 | –
14 | O=S(=O)(N[C@H]1CC[C@H](N2CCC(c3ccccc3OC3CC3)CC2)CC1)c1ccc2c(c1)OCO2 [Cpd 22, benzo[1,3]dioxole-5-sulfonic acid trans-{4-[4-(2-cyclopropoxy-phenyl)-piperidin-1-yl]-cyclohexyl}-amide] | 14 | – | 57 | – | – | 340 | –
15 | COc1ccc(S(=O)(=O)N[C@H]2CC[C@@H](N3CCC(c4ccc(F)cc4OC(C)C)CC3)CC2)cc1OC [Cpd 31, N-cis-{4-[4-(4-fluoro-2-isopropoxy-phenyl)-piperidin-1-yl]-cyclohexyl}-3,4-dimethoxy-benzenesulfonamide] | – | 690 | 12.4 | 16 | – | – | –
16 | COc1ccc(S(=O)(=O)N[C@H]2CC[C@H](N3CCC(c4ccc(F)cc4OC(C)C)CC3)CC2)cc1OC [Cpd 32, N-trans-{4-[4-(4-fluoro-2-isopropoxy-phenyl)-piperidin-1-yl]-cyclohexyl}-3,4-dimethoxy-benzenesulfonamide] | – | 639 | – | 23 | 60 | – | –
17 | COc1ccc(S(=O)(=O)N[C@H]2CC[C@@H](N3CCC(c4cc(F)ccc4OC(C)C)CC3)CC2)cc1OC [Cpd 33, N-cis-{4-[4-(5-fluoro-2-isopropoxy-phenyl)-piperidin-1-yl]-cyclohexyl}-3,4-dimethoxy-benzenesulfonamide] | – | 299 | – | – | 1.6 | – | 3.3
18 | COc1ccc(S(=O)(=O)N[C@H]2CC[C@H](N3CCC(c4cc(F)ccc4OC(C)C)CC3)CC2)cc1OC [Cpd 34, N-trans-{4-[4-(5-fluoro-2-isopropoxy-phenyl)-piperidin-1-yl]-cyclohexyl}-3,4-dimethoxy-benzenesulfonamide] | – | 1490 | – | – | 53 | – | 43
